Assay results taken from patent publication US20120009280A1, “METHOD OF REDUCING THE RATE OF DEGRADATION OF A BIOLOGICAL MATERIAL” (Bio-Energy Ingredients Limited, priority 2009, published 2012).

What was measured:
[1] = system: total micro-organism; assay: Total microbial (plate) count of spent brewer's / wet distiller's grains stored at ambient temperature; assay type: cell-based
Outline: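 Spent brewer's grains taken from a brewery discharge line were mixed at the laboratory and treated with powdered commercial calcium oxide containing approximately 94% CaO. Each batch was kept under insect-proof screens at ambient temperature, with no further treatment or agitation. Samples were drawn every seven days, and the entire sample was sent to a microbiological testing facility for total microbial counts.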

[2] = system: yeast; assay: Yeast count of spent brewer's / wet distiller's grains stored at ambient temperature; assay type: cell-based
[3] = pH of suspensions of grain samples in distilled water or PBS; conditions: 1% (w/w) in distilled water
Procedure: The untreated sample (A) was compared visually against the corresponding quicklime-treated sample (B).
On Day 7, 10 g amounts of each sample were suspended in either 90 ml PBS or 90 ml sterile distilled water and shaken for 10 minutes. The pH of each suspension was then measured and compared.
On Day 9, 10 g of each sample was suspended in 90 ml PBS and shaken for 10 minutes. The pH was measured.

[4] = dose 10% w/w, partially de-watered wet distiller's grains, Example 8

Question: With [Ca+2].[O-]CC(O)CO.[O-]CC(O)CO [Ca-DGO granules] as the compound, how does the Total plate count ([1]; dose 10% (w/w), week 0) read?
Answer: Its Total plate count is 80 cfu/gram.

Question: And the Total plate count ([1]; dose 10% (w/w), week 1)?
Answer: The Total plate count was 510 cfu/gram.

Question: And the Total plate count ([1]; dose 10% (w/w), week 2)?
Answer: The Total plate count was 3500 cfu/gram.

Question: And the Total plate count ([1]; dose 10% (w/w), week 4)?
Answer: Its Total plate count is 30 cfu/gram.

Question: What about the Total plate count ([1]; dose 10% (w/w), week 6) of the same compound?
Answer: Its Total plate count is 5400 cfu/gram.

Question: What about the Total plate count ([1]; dose 10% (w/w), week 8) of the same compound?
Answer: Its Total plate count is 410000 cfu/gram.

Question: And the Total plate count ([1]; dose 10% (w/w), week 9)?
Answer: The Total plate count was 480000 cfu/gram.

Question: What about the Total plate count ([1]; dose 15% (w/w), week 0) of the same compound?
Answer: Its Total plate count is 180 cfu/gram.

Question: And the Total plate count ([1]; dose 15% (w/w), week 1)?
Answer: Its Total plate count is 150 cfu/gram.

Question: And the Total plate count ([1]; dose 15% (w/w), week 4)?
Answer: Its Total plate count is 70 cfu/gram.

Question: And the Total plate count ([1]; dose 15% (w/w), week 5)?
Answer: The Total plate count was 650 cfu/gram.

Question: And the Total plate count ([1]; dose 15% (w/w), week 6)?
Answer: Its Total plate count is 120 cfu/gram.

Question: And the Total plate count ([1]; dose 15% (w/w), week 7)?
Answer: Its Total plate count is 700 cfu/gram.

Question: And the Total plate count ([1]; dose 15% (w/w), week 8)?
Answer: Its Total plate count is 270 cfu/gram.

Question: And the Total plate count ([1]; dose 15% (w/w), week 9)?
Answer: The Total plate count was 150 cfu/gram.

Question: And the “Yeast Count” value ([2]; dose 10% (w/w), week 0)?
Answer: The value was <10 cfu/gram.

Question: What about the “Yeast Count” value ([2]; dose 10% (w/w), week 1) of the same compound?
Answer: Its value is <10 cfu/gram.

Question: And the “Yeast Count” value ([2]; dose 10% (w/w), week 2)?
Answer: The value was <10 cfu/gram.

Question: And the “Yeast Count” value ([2]; dose 10% (w/w), week 7)?
Answer: Its value is <10 cfu/gram.

Question: What about the “Yeast Count” value ([2]; dose 10% (w/w), week 8) of the same compound?
Answer: Its value is <10 cfu/gram.

Question: And the “Yeast Count” value ([2]; dose 15% (w/w), week 0)?
Answer: The value was <10 cfu/gram.

Question: What about the “Yeast Count” value ([2]; dose 15% (w/w), week 1) of the same compound?
Answer: The value was <10 cfu/gram.

Question: And the “Yeast Count” value ([2]; dose 15% (w/w), week 2)?
Answer: The value was <10 cfu/gram.

Question: And the “Yeast Count” value ([2]; dose 15% (w/w), week 3)?
Answer: The value was <10 cfu/gram.

Question: And the “Yeast Count” value ([2]; dose 15% (w/w), week 4)?
Answer: The value was <10 cfu/gram.

Question: And the “Yeast Count” value ([2]; dose 15% (w/w), week 5)?
Answer: The value was 30 cfu/gram.

Question: What about the “Yeast Count” value ([2]; dose 15% (w/w), week 6) of the same compound?
Answer: Its value is <10 cfu/gram.

Question: What about the “Yeast Count” value ([2]; dose 15% (w/w), week 7) of the same compound?
Answer: The value was <10 cfu/gram.

Question: And the “Yeast Count” value ([2]; dose 15% (w/w), week 8)?
Answer: Its value is <10 cfu/gram.

Question: And the “Yeast Count” value ([2]; dose 15% (w/w), week 9)?
Answer: Its value is <10 cfu/gram.

Question: What about the pH ([3]; dose 10% (w/w), week 0) of the same compound?
Answer: The pH was 10.2.

Question: And the pH ([3]; dose 10% (w/w), week 1)?
Answer: The pH was 9.87.

Question: And the pH ([3]; dose 10% (w/w), week 2)?
Answer: Its pH is 7.09.

Question: And the pH ([3]; dose 10% (w/w), week 3)?
Answer: Its pH is 7.90.

Question: What about the pH ([3]; dose 10% (w/w), week 4) of the same compound?
Answer: The pH was 8.89.

Question: What about the pH ([3]; dose 10% (w/w), week 5) of the same compound?
Answer: Its pH is 6.83.

Question: What about the pH ([3]; dose 10% (w/w), week 6) of the same compound?
Answer: Its pH is 8.93.

Question: What about the pH ([3]; dose 10% (w/w), week 7) of the same compound?
Answer: The pH was 7.24.

Question: What about the pH ([3]; dose 10% (w/w), week 8) of the same compound?
Answer: The pH was 8.63.

Question: What about the pH ([3]; dose 10% (w/w), week 9) of the same compound?
Answer: Its pH is 8.96.

Question: What about the pH ([3]; dose 15% (w/w), week 0) of the same compound?
Answer: The pH was 11.53.

Question: And the pH ([3]; dose 15% (w/w), week 1)?
Answer: The pH was 11.35.

Question: What about the pH ([3]; dose 15% (w/w), week 2) of the same compound?
Answer: Its pH is 6.61.

Question: What about the pH ([3]; dose 15% (w/w), week 3) of the same compound?
Answer: The pH was 8.03.

Question: What about the pH ([3]; dose 15% (w/w), week 4) of the same compound?
Answer: Its pH is 8.54.

Question: What about the pH ([3]; dose 15% (w/w), week 5) of the same compound?
Answer: Its pH is 7.20.

Question: What about the pH ([3]; dose 15% (w/w), week 6) of the same compound?
Answer: The pH was 9.25.

Question: What about the pH ([3]; dose 15% (w/w), week 7) of the same compound?
Answer: The pH was 7.21.

Question: And the pH ([3]; dose 15% (w/w), week 8)?
Answer: Its pH is 9.17.

Question: And the pH ([3]; dose 15% (w/w), week 9)?
Answer: Its pH is 8.95.

Question: For [Ca+2].[O-2] [CaO powder], which Total plate count ([1]; dose 5% (w/w), week 0) is on record?
Answer: Its Total plate count is 640 cfu/gram.

Question: What about the Total plate count ([1]; dose 5% (w/w), week 1) of the same compound?
Answer: The Total plate count was 1800 cfu/gram.

Question: What about the Total plate count ([1]; dose 5% (w/w), week 2) of the same compound?
Answer: The Total plate count was 280 cfu/gram.

Question: And the Total plate count ([1]; dose 5% (w/w), week 3)?
Answer: Its Total plate count is 210 cfu/gram.

Question: And the Total plate count ([1]; dose 5% (w/w), week 4)?
Answer: The Total plate count was <10 cfu/gram.

Question: What about the Total plate count ([1]; dose 5% (w/w), week 6) of the same compound?
Answer: Its Total plate count is 40 cfu/gram.

Question: And the Total plate count ([1]; dose 5% (w/w), week 7)?
Answer: The Total plate count was 900 cfu/gram.

Question: What about the Total plate count ([1]; dose 5% (w/w), week 8) of the same compound?
Answer: Its Total plate count is 120 cfu/gram.

Question: And the Total plate count ([1]; dose 5% (w/w), week 9)?
Answer: The Total plate count was 20 cfu/gram.

Question: What about the Total plate count ([1]; dose 10% (w/w), week 0) of the same compound?
Answer: Its Total plate count is 100 cfu/gram.

Question: What about the Total plate count ([1]; dose 10% (w/w), week 1) of the same compound?
Answer: The Total plate count was 310 cfu/gram.

Question: And the Total plate count ([1]; dose 10% (w/w), week 2)?
Answer: The Total plate count was 150 cfu/gram.

Question: What about the Total plate count ([1]; dose 10% (w/w), week 3) of the same compound?
Answer: The Total plate count was 40 cfu/gram.

Question: And the Total plate count ([1]; dose 10% (w/w), week 4)?
Answer: The Total plate count was 20 cfu/gram.

Question: What about the Total plate count ([1]; dose 10% (w/w), week 6) of the same compound?
Answer: The Total plate count was <10 cfu/gram.

Question: What about the Total plate count ([1]; dose 10% (w/w), week 7) of the same compound?
Answer: The Total plate count was 300 cfu/gram.

Question: And the Total plate count ([1]; dose 10% (w/w), week 8)?
Answer: The Total plate count was 80 cfu/gram.

Question: And the Total plate count ([1]; dose 10% (w/w), week 9)?
Answer: The Total plate count was <10 cfu/gram.

Question: And the “minimum preservation time with total microbial counts <60 cfu/g” value [1, 4]?
Answer: The value was 2 weeks.

Question: And the “minimum preservation time with total microbial counts <1000 cfu/g” value [1, 4]?
Answer: The value was “≧1 year”.

Question: And the “Yeast Count” value ([2]; dose 5% (w/w), week 0)?
Answer: The value was <10 cfu/gram.

Question: And the “Yeast Count” value ([2]; dose 5% (w/w), week 1)?
Answer: The value was <10 cfu/gram.

Question: What about the “Yeast Count” value ([2]; dose 5% (w/w), week 2) of the same compound?
Answer: Its value is <10 cfu/gram.

Question: And the “Yeast Count” value ([2]; dose 5% (w/w), week 3)?
Answer: Its value is <10 cfu/gram.

Question: What about the “Yeast Count” value ([2]; dose 5% (w/w), week 4) of the same compound?
Answer: The value was <10 cfu/gram.

Question: What about the “Yeast Count” value ([2]; dose 5% (w/w), week 5) of the same compound?
Answer: Its value is <10 cfu/gram.

Question: And the “Yeast Count” value ([2]; dose 5% (w/w), week 6)?
Answer: The value was <10 cfu/gram.

Question: And the “Yeast Count” value ([2]; dose 5% (w/w), week 7)?
Answer: The value was <10 cfu/gram.

Question: And the “Yeast Count” value ([2]; dose 5% (w/w), week 8)?
Answer: Its value is <10 cfu/gram.

Question: And the “Yeast Count” value ([2]; dose 5% (w/w), week 9)?
Answer: Its value is <10 cfu/gram.

Question: What about the “Yeast Count” value ([2]; dose 10% (w/w), week 0) of the same compound?
Answer: The value was <10 cfu/gram.

Question: And the “Yeast Count” value ([2]; dose 10% (w/w), week 1)?
Answer: Its value is <10 cfu/gram.

Question: And the “Yeast Count” value ([2]; dose 10% (w/w), week 2)?
Answer: Its value is <10 cfu/gram.

Question: And the “Yeast Count” value ([2]; dose 10% (w/w), week 7)?
Answer: Its value is <10 cfu/gram.

Question: And the “Yeast Count” value ([2]; dose 10% (w/w), week 8)?
Answer: The value was <10 cfu/gram.

Question: And the pH ([3]; dose 5% (w/w), week 0)?
Answer: The pH was 12.93.

Question: What about the pH ([3]; dose 5% (w/w), week 1) of the same compound?
Answer: The pH was 12.05.

Question: And the pH ([3]; dose 5% (w/w), week 2)?
Answer: The pH was 11.19.

Question: And the pH ([3]; dose 5% (w/w), week 3)?
Answer: The pH was 7.82.

Question: And the pH ([3]; dose 5% (w/w), week 4)?
Answer: The pH was 9.23.

Question: What about the pH ([3]; dose 5% (w/w), week 5) of the same compound?
Answer: Its pH is 7.55.

Question: And the pH ([3]; dose 5% (w/w), week 6)?
Answer: The pH was 9.23.

Question: And the pH ([3]; dose 5% (w/w), week 7)?
Answer: The pH was 7.28.

Question: What about the pH ([3]; dose 5% (w/w), week 8) of the same compound?
Answer: Its pH is 7.60.

Question: What about the pH ([3]; dose 5% (w/w), week 9) of the same compound?
Answer: The pH was 8.45.

Question: And the pH ([3]; dose 10% (w/w), week 0)?
Answer: The pH was 13.12.

Question: What about the pH ([3]; dose 10% (w/w), week 1) of the same compound?
Answer: The pH was 12.56.

Question: What about the pH ([3]; dose 10% (w/w), week 2) of the same compound?
Answer: Its pH is 12.38.

Question: And the pH ([3]; dose 10% (w/w), week 3)?
Answer: Its pH is 12.36.

Question: And the pH ([3]; dose 10% (w/w), week 4)?
Answer: Its pH is 12.20.

Question: And the pH ([3]; dose 10% (w/w), week 5)?
Answer: Its pH is 12.12.

Question: What about the pH ([3]; dose 10% (w/w), week 6) of the same compound?
Answer: Its pH is 11.92.

Question: What about the pH ([3]; dose 10% (w/w), week 7) of the same compound?
Answer: The pH was 7.56.

Question: And the pH ([3]; dose 10% (w/w), week 8)?
Answer: The pH was 8.38.

Question: What about the pH ([3]; dose 10% (w/w), week 9) of the same compound?
Answer: Its pH is 11.77.
